The NIST ThermoML archive (doi:10.1021/acs.jced.6b00350)
Values joined by “and” are separate entries in the source; they are usually repeats but may differ in a detail not shown here. Equal entries are not always repeated.

Conditions: Liquid, Hot wire method

FC(F)CC(F)(F)F [1,1,1,3,3-pentafluoropropane]
Conditions	thermal conductivity
302.4 K, 9755 kPa	0.09135 W/m/K
302.4 K, 43574 kPa	0.104 W/m/K
302.41 K, 9754 kPa	0.09128 W/m/K
302.43 K, 27824 kPa	0.09846 W/m/K
302.43 K, 35521 kPa	0.1012 W/m/K
302.43 K, 35524 kPa	0.1013 W/m/K
302.44 K, 27822 kPa	0.09861 W/m/K
302.47 K, 4917 kPa	0.08905 W/m/K
302.47 K, 4920 kPa	0.08908 W/m/K
302.49 K, 21586 kPa	0.09609 W/m/K
302.49 K, 21587 kPa	0.09598 W/m/K
302.51 K, 297 kPa	0.08675 W/m/K
302.52 K, 295 kPa	0.08688 W/m/K
302.57 K, 15359 kPa	0.09341 W/m/K
302.57 K, 15368 kPa	0.0935 W/m/K
302.68 K, 68021 kPa	0.1116 W/m/K
302.68 K, 68023 kPa	0.1115 W/m/K
302.69 K, 62436 kPa	0.1101 W/m/K
302.7 K, 62429 kPa	0.1097 W/m/K
302.76 K, 52483 kPa	0.107 W/m/K
302.76 K, 52489 kPa	0.1069 W/m/K
302.81 K, 43572 kPa	0.104 W/m/K
302.82 K, 43572 kPa	0.1041 W/m/K
302.85 K, 35512 kPa	0.1012 W/m/K
302.85 K, 35521 kPa	0.1013 W/m/K
302.87 K, 9749 kPa	0.09105 W/m/K
302.87 K, 9754 kPa	0.091 W/m/K
302.88 K, 27813 kPa	0.09844 W/m/K
302.88 K, 27817 kPa	0.09814 W/m/K
302.93 K, 4918 kPa	0.08893 W/m/K
302.93 K, 4920 kPa	0.0888 W/m/K
302.94 K, 21581 kPa	0.09604 W/m/K
302.94 K, 21589 kPa	0.09618 W/m/K
302.99 K, 297 kPa	0.08639 W/m/K
302.99 K, 298 kPa	0.08647 W/m/K
303.03 K, 15369 kPa	0.09337 W/m/K
303.04 K, 15370 kPa	0.09341 W/m/K
303.11 K, 68011 kPa	0.1115 W/m/K
303.12 K, 68009 kPa	0.1114 W/m/K
303.13 K, 62430 kPa	0.11 W/m/K
303.13 K, 62436 kPa	0.11 W/m/K
303.21 K, 52481 kPa	0.1068 W/m/K
303.21 K, 52487 kPa	0.1068 W/m/K
303.27 K, 43574 kPa	0.104 W/m/K
303.27 K, 43576 kPa	0.1041 W/m/K
303.33 K, 35513 kPa	0.1011 W/m/K
303.33 K, 35514 kPa	0.1012 W/m/K
303.36 K, 9753 kPa	0.09097 W/m/K
303.36 K, 9758 kPa	0.09104 W/m/K
303.36 K, 27804 kPa	0.0984 W/m/K
303.37 K, 27811 kPa	0.09842 W/m/K
303.44 K, 4916 kPa	0.08869 W/m/K
303.44 K, 4920 kPa	0.08879 W/m/K
303.44 K, 21579 kPa	0.09595 W/m/K
303.44 K, 21587 kPa	0.09607 W/m/K
303.51 K, 294 kPa	0.08655 W/m/K
303.51 K, 297 kPa	0.08645 W/m/K
303.54 K, 15365 kPa	0.09343 W/m/K
303.54 K, 15366 kPa	0.09328 W/m/K
321.62 K, 4352 kPa	0.08273 W/m/K
321.63 K, 4356 kPa	0.08308 W/m/K
321.64 K, 337 kPa	0.08036 W/m/K
321.65 K, 338 kPa	0.08047 W/m/K
321.65 K, 69905 kPa	0.1085 W/m/K
321.65 K, 69906 kPa	0.1083 W/m/K
321.68 K, 58591 kPa	0.1047 W/m/K
321.68 K, 58592 kPa	0.1049 W/m/K
321.69 K, 40553 kPa	0.09923 W/m/K
321.7 K, 40558 kPa	0.09918 W/m/K
321.7 K, 49855 kPa	0.1015 W/m/K
321.7 K, 49873 kPa	0.1019 W/m/K
321.71 K, 33193 kPa	0.0964 W/m/K
321.71 K, 33197 kPa	0.09631 W/m/K
321.73 K, 26150 kPa	0.09344 W/m/K
321.73 K, 26151 kPa	0.093 W/m/K
321.74 K, 19697 kPa	0.09044 W/m/K
321.76 K, 19703 kPa	0.09051 W/m/K
321.77 K, 13835 kPa	0.08752 W/m/K
321.78 K, 13839 kPa	0.08772 W/m/K
321.81 K, 8795 kPa	0.08531 W/m/K
321.82 K, 8794 kPa	0.08538 W/m/K
322.02 K, 69892 kPa	0.1082 W/m/K
322.02 K, 69896 kPa	0.1083 W/m/K
322.06 K, 58582 kPa	0.1049 W/m/K
322.06 K, 58584 kPa	0.105 W/m/K
322.07 K, 4350 kPa	0.08295 W/m/K
322.07 K, 4352 kPa	0.08313 W/m/K
322.08 K, 49847 kPa	0.1021 W/m/K
322.09 K, 40542 kPa	0.09897 W/m/K
322.09 K, 49848 kPa	0.1021 W/m/K
322.1 K, 332 kPa	0.08025 W/m/K
322.1 K, 40546 kPa	0.09896 W/m/K
322.11 K, 332 kPa	0.08034 W/m/K
322.11 K, 33198 kPa	0.09595 W/m/K
322.12 K, 33200 kPa	0.09642 W/m/K
322.14 K, 26147 kPa	0.09346 W/m/K
322.15 K, 26148 kPa	0.09328 W/m/K
322.18 K, 19689 kPa	0.09041 W/m/K
322.18 K, 19694 kPa	0.09034 W/m/K
322.23 K, 13831 kPa	0.08764 W/m/K
322.23 K, 13837 kPa	0.08773 W/m/K
322.27 K, 8791 kPa	0.08514 W/m/K
322.27 K, 8795 kPa	0.08522 W/m/K
322.42 K, 69875 kPa	0.1077 W/m/K
322.42 K, 69881 kPa	0.1077 W/m/K
322.47 K, 58570 kPa	0.1047 W/m/K
322.48 K, 58576 kPa	0.1046 W/m/K
322.51 K, 49828 kPa	0.1017 W/m/K
322.51 K, 49834 kPa	0.1019 W/m/K
322.53 K, 40525 kPa	0.09861 W/m/K
322.53 K, 40531 kPa	0.09882 W/m/K
322.56 K, 4352 kPa	0.0827 W/m/K and 0.08272 W/m/K
322.56 K, 33194 kPa	0.09577 W/m/K and 0.09565 W/m/K
322.6 K, 328 kPa	0.08026 W/m/K
322.61 K, 332 kPa	0.08024 W/m/K
322.61 K, 26147 kPa	0.09305 W/m/K
322.61 K, 26148 kPa	0.09299 W/m/K
322.65 K, 19690 kPa	0.0904 W/m/K
322.66 K, 19689 kPa	0.09023 W/m/K
322.71 K, 13830 kPa	0.08772 W/m/K
322.72 K, 13830 kPa	0.08785 W/m/K
322.76 K, 8791 kPa	0.08512 W/m/K
322.77 K, 8793 kPa	0.08496 W/m/K
322.85 K, 69859 kPa	0.1077 W/m/K
322.86 K, 69861 kPa	0.1078 W/m/K
322.92 K, 58557 kPa	0.1047 W/m/K
322.92 K, 58569 kPa	0.1047 W/m/K
322.96 K, 49820 kPa	0.1018 W/m/K
322.97 K, 49830 kPa	0.1018 W/m/K
323 K, 40517 kPa	0.09874 W/m/K
323 K, 40525 kPa	0.09862 W/m/K
323.04 K, 33192 kPa	0.0959 W/m/K
323.05 K, 33192 kPa	0.09594 W/m/K
323.09 K, 4348 kPa	0.08267 W/m/K
323.1 K, 4349 kPa	0.08248 W/m/K
323.1 K, 26147 kPa	0.09286 W/m/K
323.11 K, 26150 kPa	0.09307 W/m/K
323.15 K, 332 kPa	0.0802 W/m/K
